These results are taken from publication PMC6832836 (Toxins, 2019).

Data set [1] deals with USTB-05-C. The following applies: CE protein 165 mg L^−1 added at 12 h; followed from 13 h until 24 h; PBS; 30 °C, 200 rpm; HPLC-UV 238 nm.
Data set [2] concerns USTB-05-A. The following applies: initial NOD 13.7 mg L^−1; CE protein 158 mg L^−1; PBS; 30 °C, 200 rpm; 12 h to 24 h; HPLC-UV 238 nm.
Data set [3] deals with CE of recombinant pET30a(+)/BL21(DE3). The data set is classed as in vitro ADME, E. coli. Conditions: CE of pET30a(+)/BL21(DE3) added at 12 h; PBS; 30 °C; HPLC-UV 238 nm; Figure S1. The protocol: The experiments were carried out with five treatments as following: • Control groups for treatment A and treatment C: the CEs of recombinant bacteria pGEX-4T-1/BL21(DE3) without protein USTB-05-A and recombinant bacteria pET30a(+)/BL21(DE3) without protein USTB-05-C were added into two tubes with PBS containing NOD, respectively. • Treatment A: the CE of recombinant bacteria pGEX-4T-1/USTB-05-A/BL21(DE3) containing crude protein USTB-05-A was added into PBS containing NOD. • Treatment C: the CE of recombinant bacteria pET30a(+)/USTB-05-C/BL21(DE3) containing crude protein USTB-05-C was added into PBS containing NOD. • Treatment AC: at 0 h, the CE containing crude protein USTB-05-A was added into PBS containing NOD. At 12 h, the CE containing crude protein USTB-05-C was added to the above solution. • Control group for treatment A and treatment C: at 0 h, the CE containing crude protein USTB-05-A was added into the test tubes with PBS containing NOD. At 12 h, the CE of pET30a(+)/BL21(DE3) without protein USTB-05-C was added to the above solution. […]
The concentration of NOD was detected by high performance liquid chromatography (HPLC) (LC10ATVP, Shimadzu Co., Ltd., Tokyo, Japan) with a UV diode array detector at 238 nm. […] The spectra of NOD and its biodegradation products were detected at the time of HPLC analysis.

The subject of data set [4] is cell-free extract (CE) of Sphingopyxis sp. USTB-05. Conditions: cited from earlier work.
Data set [5] has as its system MlrA point mutants H260A and E265A. The following applies: cited from earlier work.
Data set [6] has as its system USTB-05-A mutants. The following applies: cited from earlier work.

As to `C/C=C(/C(=O)N[C@@H](C(=O)O)[C@H](C)C(=O)N[C@@H](CCCNC(=N)N)C(=O)O)N(C)C(=O)CC[C@@H](NC(=O)[C@@H](C)[C@@H](N)/C=C/C(C)=C/[C@H](C)[C@H](Cc1ccccc1)OC)C(=O)O` [product A], the “change of product A peak after addition of CE containing USTB-05-C (treatment AC)” value in data set [1] is “decreased and disappeared”. The “peaks after the first 12 h until 24 h with CE containing USTB-05-A only (treatment A)” value in data set [2] is listed as “remained constant”. The “concentration of product A with control CE without USTB-05-C (control group of treatment AC)” value in data set [3] is recorded as “constant”.
Take MC-LR: the “time to complete biodegradation by CE” value in data set [4] was at most 3 h. In addition, in data set [5], the “MC-LR biodegradation by MlrA point mutants H260A and E265A” value is “no activity”. In addition, in data set [6], the “MC-LR biodegradation by N264A mutant” value is on record as “significant decrease in MlrA activity”; the “MC-LR biodegradation by W176A and W201A mutants” value is on record as “decrease in the reaction rate to some extent”; the “MC-LR biodegradation by point mutants E172A, H205A and H260A” value is recorded as “complete loss of enzymatic activity”.
MC-YR: in data set [4], the “time to complete elimination by CE” value is listed as at most 10 h.
